In patent US9388160B2, “Quinazoline derivatives as kinases inhibitors and methods of use thereof” (TELIGENE LTD., priority 2011, dated 2016):
Blank lines part the entries; values can stand above or below the compound they belong to.

Columns and labels:
TA1537 = test: Ames Assay, plate incorporation, strain TA1537; details: with S9 mixture
Protocol: (§1) A representative number of compounds were tested in Ames Assay for assess the mutagenic potential.
(§2) Preparations of culture media/plates and reagents: 0.5 mmol L-histidine-0.5 mmol/L biotin solution; 20% glucose solution; nutrient broth; KCl salt solution (1.65 M KCl+0.4 M MgCl2); 0.2 M phosphate buffer (pH 7.4); co-factors (NADP; glucose 6-phosphate) for S9 mixture; top agar medium; minimal agar medium (Vogel-Bonner medium E); bottom agar medium.
(§3) Preparation of the enriched culture: Take nutrient broth 5 mL, added it to sterile tubes with the cryopreserved strain culture TA1535 and TA1537. After inoculation in nutrient broth, the cultures were kept at 37° C. with oscillation of 100 times/min for 10 hours. The strain cultures should have about 1˜2×10^9 viable cells per milliliters.
(§4) Preparation of 10 ml S9 mixture: Co-factor mixture 9 mL by glucose 6-phosphate 42.3 mg, […] 14.2 mg, 6-phosphate dehydrogenase (3 unit/μl) 10 μl plus riboflavin (9.6 mg dissolved in 700 μL water), and then mixed with 1 ml of the induced rat S9.
(§5) Plate incorporation method: In the experiment, place 2 ml of the top agar medium containing 0.5 mmol/L histidine-0.5 mmol/L biotin into the test tubes kept in 45° C. water bath. Into a 1.5 ml sterile Eppendorf tube, it was added 0.1 ml of the bacterial strain in the enriched broth, 0.1 ml of the test compound solution and 0.5 ml of the S9 mixture, thoroughly mixed and incubated for 30 minutes at 37° C. with shaker speed at 150 rpm/min. The liquid mixture in the Eppendorf tube was added to the top agar medium. After mixing it was poured rapidly into the plates with bottom agar plate, turning the plates to allow uniform distribution. Initially placed horizontally for condensation and then placed invertly for 48 hours at 37° C. Count and record the number of revertant colonies per dish.
(§6) Experiment controls: In addition to the set of doses (3.3, 8.3, 33.3 and 66.6 μM) for the test compounds, here are the controls: blank control, sterile control, solvent control, positive mutagen control (2-aminoanthracene at 10 μg/dish).

TA1535 = test: Ames Assay, plate incorporation, strain TA1535; details: with S9 mixture
Protocol: as §1, §2, §3, §4, §5, §6

EGFR(T790M/L858R) = EGFR(T790M/L858R) (Homo sapiens (Human), UniProt P00533, L858R/T790M); test: In vitro EGFR(T790M/L858R) kinase activity inhibition assay (Kinase-Glo Plus luminescence); type: biochemical; details: 10 μM ATP, poly(Glu,Tyr) substrate
Sequence of EGFR(T790M/L858R) (P00533 25-1210 T790M/L858R): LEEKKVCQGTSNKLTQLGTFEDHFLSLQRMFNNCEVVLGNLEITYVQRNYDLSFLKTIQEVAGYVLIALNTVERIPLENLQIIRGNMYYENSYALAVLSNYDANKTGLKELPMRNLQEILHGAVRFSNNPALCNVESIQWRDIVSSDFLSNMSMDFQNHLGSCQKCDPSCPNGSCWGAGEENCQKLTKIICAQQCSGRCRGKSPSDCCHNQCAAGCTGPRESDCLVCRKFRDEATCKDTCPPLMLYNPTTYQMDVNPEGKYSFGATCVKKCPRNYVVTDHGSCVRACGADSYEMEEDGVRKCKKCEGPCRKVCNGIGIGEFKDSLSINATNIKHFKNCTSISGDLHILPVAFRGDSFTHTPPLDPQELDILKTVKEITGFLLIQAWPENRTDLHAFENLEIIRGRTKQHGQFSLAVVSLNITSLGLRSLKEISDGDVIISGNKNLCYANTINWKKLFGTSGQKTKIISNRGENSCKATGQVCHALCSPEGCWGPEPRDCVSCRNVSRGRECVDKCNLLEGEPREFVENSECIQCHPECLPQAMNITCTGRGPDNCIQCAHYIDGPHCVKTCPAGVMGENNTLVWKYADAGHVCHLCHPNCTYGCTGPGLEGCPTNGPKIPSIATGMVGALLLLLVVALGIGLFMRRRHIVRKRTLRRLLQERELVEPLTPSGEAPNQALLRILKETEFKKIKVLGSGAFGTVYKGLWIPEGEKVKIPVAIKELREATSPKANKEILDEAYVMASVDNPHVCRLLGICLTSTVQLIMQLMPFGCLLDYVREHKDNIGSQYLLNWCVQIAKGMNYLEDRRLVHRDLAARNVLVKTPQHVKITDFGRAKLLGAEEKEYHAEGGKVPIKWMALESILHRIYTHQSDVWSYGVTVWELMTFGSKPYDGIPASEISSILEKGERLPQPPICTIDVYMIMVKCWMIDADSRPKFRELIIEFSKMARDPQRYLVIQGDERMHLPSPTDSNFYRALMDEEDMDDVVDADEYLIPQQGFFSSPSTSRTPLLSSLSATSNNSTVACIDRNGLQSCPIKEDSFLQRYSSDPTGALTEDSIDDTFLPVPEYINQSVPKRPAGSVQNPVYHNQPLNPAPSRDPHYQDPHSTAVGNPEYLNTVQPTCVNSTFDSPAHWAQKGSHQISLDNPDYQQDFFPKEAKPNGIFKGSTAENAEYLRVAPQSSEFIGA
Protocol: (§7) • 1. […] It measures kinase activity by quantitating the amount of ATP remaining in solution following a kinase reaction. The luminescent signal from the assay is correlated with the amount of ATP present and is inversely correlated with the amount of kinase activity. […] The luminescence data were analyzed using the computer software, Graphpad Prism. […] The values of % activity versus a series of compound concentrations were then plotted using non-linear regression analysis of Sigmoidal dose-response curve generated with the equation Y=B+(T−B)/1+10^((LogEC50−X)×Hill Slope), where Y=percent activity, B=minimum percent activity, T=maximum percent activity, X=logarithm of compound and Hill Slope=slope factor or Hill coefficient. The IC50 value was determined by the concentration causing a half-maximal percent activity.

[1] = tested on: NCI-H-1975 cell line xenograft; test: In vivo subcutaneous NCI-H-1975 cell line xenograft model in nude mice; parameters: species or system Balb/c nude mice
From the text: A representative protocol for the in vivo experiment is as followed to establish the subcutaneous NCI-H-1975 cell line xenograft model in nude mice and to evaluate the in vivo therapeutic efficacy of the compounds: Animals: Male Balb/c nude mice (6˜8 weeks old) were obtained from SLAC Laboratory Animal, Shanghai, China. Animals were maintained under SPF conditions in sterile filter top cages and housed on HEPA-filtered ventilated racks. Animals received sterile rodent chow and water ad libitum. Cell line: NCI-H-1975 cell line, S.c. Xenograft Models in Athymic Mice: Cells for implantation into athymic mice were harvested and pelleted by centrifugation at 1200 r/min for 5 min. Cells were washed once and resuspended in sterile PBS buffer with 5×10^6 in 200 μl. Then cells were implanted s.c. into the right scapular region of each mouse and allowed to grow to 200-300 mm^3 before the administration of compound. Preparation of the Dose Formulation: each compound was suspensioned in 0.5% CMC-Na. Randomization: When tumor volumes approach 200-300 mm^3, the mice will be randomized into 5 groups according to the tumor volume. The day will be denoted as D1 and the treatments will be started at this day. Administered: Dose will be administered with oral gavage needle once daily for number of days. Treatment of compounds administered in 0.5% CMC—Na by p.o. gavage was initiated when tumors were 200˜300 mm^3 in volume. Observations: After inoculation, the animals will be checked daily for morbidity and mortality. At the time of routine monitoring, the animals will be checked for any effects of tumor growth and treatments on normal behavior such as mobility, body weight gain/loss (body weights will be measured twice weekly or every other day), eye/hair matting and any other abnormal effect. Death and observed clinical signs will be recorded on the basis of the numbers of animals within each subset. Tumor Size Measurements: Tumor volume was determined by measurement with electronic vernier calipers every 3 days and tumor volume was calculated as the product of its length×width^2×0.5. Effect studies: Tumor volume was expressed on indicated days as the mean tumor volume±SD. Percentage (%) inhibition values were measured for drug-treated mice compared with vehicle-treated mice and are calculated as follows: Tumor growth inhibition(TGI, %)=100−[MTV treated/MTV control]×100. Significant differences between the treated versus the control groups (p<0.05) were determined using t test. At study endpoint, after blood collection, mice were practicsed euthanasia by cervical dislocation, the tumor tissue was collected first, then abdominal cavity was cut open, liver and spleen were excised, then weight after the gallblader was removed respectively. Organ weight and Organ/body weight ratios between the treated versus the control groups were compared. Ratios was calculated as follows: Ratios=Organ weight/(body weight-tumor weight). Both organ weight and Organ/body weight ratios were also expressed as mean±SD, and significant differences between the treated versus the control groups (p<0.05) were determined using t test.
The following Table D lists compounds representative of the invention and their activity in subcutaneous NCI-H-1975 cell line xenograft model in nude mice described above. Compound 11 and Dacomitinib were dosed at 15 mg/kg by oral gavage once daily for number of days. Tumor growth inhibition (TGI, %) was calculated.

EGFR = EGFR (Homo sapiens (Human), UniProt P00533); test: In vitro EGFR kinase activity inhibition assay (Kinase-Glo Plus luminescence); type: biochemical; details: 10 μM ATP, poly(Glu,Tyr) substrate
Sequence of EGFR (P00533 25-1210): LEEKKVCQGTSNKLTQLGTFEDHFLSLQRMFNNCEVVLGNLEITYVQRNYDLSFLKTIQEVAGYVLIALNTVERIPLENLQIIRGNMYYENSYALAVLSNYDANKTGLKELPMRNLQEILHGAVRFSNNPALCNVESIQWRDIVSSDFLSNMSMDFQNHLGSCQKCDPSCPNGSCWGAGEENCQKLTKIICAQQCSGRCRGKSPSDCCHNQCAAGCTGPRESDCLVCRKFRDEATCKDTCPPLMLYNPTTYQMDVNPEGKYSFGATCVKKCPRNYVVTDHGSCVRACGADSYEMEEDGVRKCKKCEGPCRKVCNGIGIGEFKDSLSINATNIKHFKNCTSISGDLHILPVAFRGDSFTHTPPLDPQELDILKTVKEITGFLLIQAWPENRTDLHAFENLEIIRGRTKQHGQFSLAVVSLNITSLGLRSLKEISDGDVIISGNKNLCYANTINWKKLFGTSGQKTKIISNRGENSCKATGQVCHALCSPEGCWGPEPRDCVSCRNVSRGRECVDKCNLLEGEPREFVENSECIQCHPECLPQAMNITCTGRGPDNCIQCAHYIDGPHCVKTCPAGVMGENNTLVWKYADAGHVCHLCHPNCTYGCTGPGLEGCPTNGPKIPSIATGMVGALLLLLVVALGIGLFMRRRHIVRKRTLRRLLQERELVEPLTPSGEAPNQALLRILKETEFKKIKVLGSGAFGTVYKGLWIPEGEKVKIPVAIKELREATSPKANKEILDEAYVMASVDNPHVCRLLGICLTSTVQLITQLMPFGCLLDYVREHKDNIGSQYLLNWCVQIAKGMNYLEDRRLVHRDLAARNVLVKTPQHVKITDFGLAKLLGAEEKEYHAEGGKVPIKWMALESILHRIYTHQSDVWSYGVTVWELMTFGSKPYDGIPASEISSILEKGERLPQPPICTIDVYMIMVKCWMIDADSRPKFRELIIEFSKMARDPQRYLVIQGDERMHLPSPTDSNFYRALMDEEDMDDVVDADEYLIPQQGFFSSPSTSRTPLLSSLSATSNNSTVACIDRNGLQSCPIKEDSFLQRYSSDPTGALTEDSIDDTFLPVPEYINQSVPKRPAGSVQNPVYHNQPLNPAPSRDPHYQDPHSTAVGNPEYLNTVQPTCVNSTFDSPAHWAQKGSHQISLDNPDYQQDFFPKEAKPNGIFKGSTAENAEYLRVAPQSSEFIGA
Protocol: as §7

TA1535 and TA1537 = test: Ames Assay, overall mutagenic potential; details: TA1535 and TA1537, with S9 mixture, 3.3-66.6 μM
Protocol: as §1, §2, §3, §4
Plate incorporation method: In the experiment, place 2 ml of the top agar medium containing 0.5 mmol/L histidine-0.5 mmol/L biotin into the test tubes kept in 45° C. water bath. […]

A431 Cell line = test: Cell proliferation assay (MTT), A431; type: cell-based; details: Homo sapiens, A-431, 72 hours treatment
Protocol: (§8) A representative number of compounds were assayed against different cancer cell lines such as NCI-H-1975 or A431 using the cell proliferation assays:
(§9) Cell Proliferation Assays: • 1. 5×10^3 cells per well in 100 μl of medium were seeded in 96-well plate, here the medium contained 5% FBS • 2. 24 hours later, 100 μl fresh medium was added with various concentrations of compounds into each well, while the medium here was free of FBS • 3. After the cells were treated with compounds for 72 hours, 20 μl MTT (5 mg/ml) was added into each well, and then the assay plate was incubated at 37° C. for 4 more hours. • 4. The assay plate was centrifuged at 800 g for 10 min. The medium was aspirated, 150 μl DMSO was added into each well. The plate was gently shaked for 10 min. • 5. The absorbance at 570 nm was measured on the plate reader. • 6. IR %=(WC−WT)/WC*100%.

SK-Br-3 Cell line = test: Cell proliferation assay (MTT), SK-Br-3; type: cell-based; details: Homo sapiens, 72 hours treatment
Protocol: as §8, §9

[2] = Day 3, 15 mg/kg oral gavage once daily
[3] = Day 7, 15 mg/kg oral gavage once daily

Structure (SMILES): Nc1ccc2cc3ccccc3cc2c1 [2-aminoanthracene, reference compound]
TA1537 Colony number (TA1537; 17.27 uM (10 μg/dish)): 260 | TA1535 Colony number (TA1535; 17.27 uM (10 μg/dish)): 205

Structure (SMILES): C#Cc1cccc(Nc2ncnc3cc(OCC)c(NC(=O)/C=C/CN4CCCCC4)cc23)c1 [Compound 11, (E)-N-(7-ethoxy-4-((3-ethynylphenyl)amino)quinazolin-6-yl)-4-(piperidin-1-yl)but-2-enamide]
IC50 (EGFR(T790M/L858R)): 22 nM | TA1537 Colony number (TA1537; 3.33 uM): 14 | TA1537 Colony number (TA1537; 8.33 uM): 12 | TA1537 Colony number (TA1537; 33.3 uM): 23 | TA1537 Colony number (TA1537; 66.6 uM): 22 | Tumor growth inhibition compared with Dacomitinib ([1]; 15 mg/kg oral gavage once daily): significant better tumor growth inhibition compared with Dacomitinib | Tumor growth inhibition (TGI, %) [1, 2]: 30.11% | Tumor growth inhibition (TGI, %) [1, 3]: 83.25% | IC50 (EGFR): 1.7 nM | Ames Assay result (mutagenic potential) (TA1535 and TA1537): negative | TA1535 Colony number (TA1535; 3.33 uM): 10 | TA1535 Colony number (TA1535; 8.33 uM): 13 | TA1535 Colony number (TA1535; 33.3 uM): 18 | TA1535 Colony number (TA1535; 66.6 uM): 12 | IC50 (A431 Cell line): 2950 nM | IC50 (SK-Br-3 Cell line): 85.2 nM

Structure (SMILES): C#Cc1cccc(Nc2ncnc3cc(OC)c(NC(=O)/C=C/CN4CCCCC4)cc23)c1 [Compound 12, (E)-N-(4-((3-ethynylphenyl)amino)-7-methoxyquinazolin-6-yl)-4-(piperidin-1-yl)but-2-enamide]
IC50 (EGFR(T790M/L858R)): < 100 nM | TA1537 Colony number (TA1537; 3.33 uM): 8 | TA1537 Colony number (TA1537; 8.33 uM): 22 | TA1537 Colony number (TA1537; 33.3 uM): 47 | TA1537 Colony number (TA1537; 66.6 uM): 66 | IC50 (EGFR): < 10 nM | Ames Assay result (mutagenic potential) (TA1535 and TA1537): positive | TA1535 Colony number (TA1535; 3.33 uM): 17 | TA1535 Colony number (TA1535; 8.33 uM): 9 | TA1535 Colony number (TA1535; 33.3 uM): 17 | TA1535 Colony number (TA1535; 66.6 uM): 9 | IC50 (A431 Cell line): 4900 nM | IC50 (SK-Br-3 Cell line): 116 nM

IC50 (A431 Cell line): 19500 nM | IC50 (SK-Br-3 Cell line): 225 nM
Structure (SMILES): COc1cc2ncnc(Nc3ccc(F)c(Cl)c3)c2cc1NC(=O)/C=C/CN1CCCCC1 [Dacomitinib, reference compound]
Tumor growth inhibition (TGI, %) [1, 2]: 19.86% | Tumor growth inhibition (TGI, %) [1, 3]: 75.36%
